Measurements from US9757332B2, “Gel-like composition having high ubiquinol content” (UHA Mikakuto Co., Ltd., priority 2013, dated 2017).

Assay: Observation of particles under optical microscope (Test Example I-4)
Assay type: physicochemical
Details: magnification of 400 times

COc1c(O)c(C)c(C/C=C(\C)CC/C=C(\C)CC/C=C(\C)CC/C=C(\C)CC/C=C(\C)CC/C=C(\C)CC/C=C(\C)CC/C=C(\C)CC/C=C(\C)CCC=C(C)C)c(O)c1OC [ubiquinol powder (Kaneka QH), ubiquinol]
crystals observed under optical microscope: irregular crystal structure
